Tested on: TEAD-dependent transcription
Experiment: Inhibitor activity against TEAD-dependent transcription in a cell-based reporter assay (MSTO-211H+12XGTIIC luciferase)
Conditions: Homo sapiens; MSTO-211H+12XGTIIC cell line, 24 hours compound incubation, luminescence normalized to cell viability fluorescence; read-out: MSTO-211H GMean IC50 (uM) Cell Assay Reporter Cell Variant: TEAD
Text: Determine Inhibitor Activity Against TEAD-Dependent Transcription in a Cell-Based Reporter Assay
The human mesothelioma cell line MSTO-211H was stably transfected with a pGL4.21 plasmid containing a synthetic promoter with 12 copies of the GTIIC TEAD response element that drives the expression of a luciferase reporter gene^1 using Lipofectamine transfection reagent (Thermno Fisher). Transfected cells were selected using puromycin and single cell clones expressing this construct (referred to as MSTO-211H+12XGTIIC) were generated by limiting dilution. MSTO-211H cells was characterized by genetic alterations in key components of the Hippo pathway^2, resulting in up-regulation of YAP/TEAD-mediated transcription. […] To evaluate TEAD inhibitors, the MSTO-211H+12XGTIIC cell line was seeded in a 96-well plate in 50 μL of culture media at 1×10^4 cells per well and incubated at 37° C. overnight. Serial dilutions of compounds (in total volume of 50 μL of culture media) were added to the cells and incubated at 37° C. for 24 hours. Each plate included cells treated with DMSO as high controls and cells treated with 20 μM of the reference compound K-975 (a known TEAD inhibitor)^3 as low controls. Cell viability was assayed by the addition of 25 μL of CellTiter-Fluor reagent (Promega) followed by a 30-minute incubation at 37° C. and quantification of the fluorescence signal (Ex400/Em505). Subsequently, luciferase expression was assayed by the addition of 25 μL of ONE-Glo reagent (Promega) followed by a 10-minute incubation at room temperature and quantification of the luminescence signal. The luminescence signal was normalized to the fluorescence signal to correct for any loss in cell viability over the 24-hour compound incubation period. The percentage of inhibition of normalized luminescence signal, indicative of compound-mediated inhibition of TEAD-dependent transcription, at individual compound concentrations relative to high and low controls was calculated. The data were analyzed by using nonlinear regression to generate IC50 values for individual compounds.

O=C1c2cccc(Oc3ccc(C(F)(F)F)cc3)c2CCN1c1ccnc([S+]([O-])C(F)(F)F)n1 (stereo not shown) [O-0112, 5-(4-(trifluoromethyl)phenoxy)-2-(2-((trifluoromethyl)sulfinyl)pyrimidin-4-yl)-3,4-dihydroisoquinolin-1(2H)-one] gave an IC50 of 0.001 to 10 µM.

From patent US20250382279A1, “COMPOUNDS AND METHODS FOR YAP/TEAD MODULATION AND INDICATIONS THEREFOR” (OPNA BIO SA, priority 2023, published 2025)
